Measured values as given in US11065274B2, “Prevention and treatment for microbial infections” (University of Rochester, priority 2015, dated 2021).

Columns and labels:
[1] = test system: Enterococcus faecium 824-05
P. aeruginosa [2] = conditions: P. aeruginosa wound; 2% agent in PEG (combination 1%+1%), twice a day for three days
Experimental: (§1) Treatments were twice a day for a total of three days, at which point the wound bacterial burden was measured.

[3] = test system: 24 hour established A. baumannii biofilms
[4] = test system: Enterobacter cloacae Clinical Isolate
S. aureus [5] = conditions: 2% agent (combination 1% silver sulfadiazine and 1% zinc pyrithione), 3 day
Experimental: as §1

[6] = test system: Klebsiella pneumoniae CKP4
[7] = test system: Staphylococcus aureus UAMS-1
[8] = test system: 48 hour established Pseudomonas aeruginosa biofilms
S. aureus [9] = test system: S. aureus
Text: (§2) Dose response measures of the antimicrobial activity of various concentrations (0 to 8% active agent) were used to define the optimal concentration of each agent alone and in combination.

[10] = test system: Pseudomonas aeruginosa PA01
P. aeruginosa [11] = test system: P. aeruginosa
Text: as §2

[12] = test system: Enterococcus faecalis V583
[13] = test system: Acinetobacter baumannii 983709
[14] = 0 to 8% active agent (ZnPt ˜0.015 to 0.25%; combination 0.015% to 4%)

With zinc pyrithione [ZnPt] the minimum inhibitory concentration ([1]; Enterococcus faecium) was 2 µg/mL, the MIC ([1]; Enterococcus faecium 824-05) was 2 µg/mL and the “decrease in bacterial burden” value (P. aeruginosa [2]) was 1.2 log. For the same substance, the “antibiofilm activity toward A. baumannii biofilms” value ([3]; comparison of agents alone and in combination) was “improved activity”, the “reduction in biofilm associated A. baumannii” value ([3]; highest concentration tested (128 μg ml^−1; combination 64 μg ml^−1 of each agent)) was 3.5 log and the minimum inhibitory concentration ([4]; Enterbacter cloacae) was 4 µg/mL. For the same substance, the MIC ([4]; Enterobacter cloacae Clinical Isolate) was 4 µg/mL, the “animals completed cleared of S. aureus” value (S. aureus [5]) was 6 of 10 and the minimum inhibitory concentration ([6]; Klebsiella pneumoniae) was 2 µg/mL. The MIC ([6]; Klebsiella pneumoniae CKP4) was 2 µg/mL, the minimum inhibitory concentration (Escherichia coli 8307; Escherichia coli) was 1 µg/mL and the MIC (Escherichia coli 8307; Escherichia coli 8307) was 1 µg/mL. For the same substance, the minimum inhibitory concentration ([7]; Staphylococcus aureus) was 2 µg/mL, the MIC ([7]; Staphylococcus aureus UAMS-1) was 2 µg/mL and the “reduction in biofilm associated Pseudomonas aeruginosa” value ([8]; 50 μM (15.8 μg ml^−1), 48 hour biofilm) was 1 log. For the same substance, the “antibiofilm activity toward P. aeruginosa” value ([8]; low concentrations (4 to 64 μg ml^−1)) was “comparable to that of silver sulfadiazine”, the “dose response of antimicrobial activity in PEG ointment” value (“dose response” below) (A. baumannii; [14]) was “dose-dependent increase in antimicrobial activity” and the “antimicrobial activity in PEG-formulation” value (A. baumannii; 1% agent or 1% combination (0.5% each)) was “exhibited antimicrobial activity”. For the same substance, the “antimicrobial activity in PEG-formulation” value (S. aureus [9]) was “exhibited antimicrobial activity”, the “dose response” value (S. aureus [9]; [14]) was “dose-dependent increase in antimicrobial activity” and the MIC ([10]; Pseudomonas aeruginosa PA01) was 16 µg/mL. The minimum inhibitory concentration ([10]; planktonic P. aeruginosa) was 16 µg/mL, the “dose response” value (P. aeruginosa [11]; P. aeruginosa, 0 to 8% active agent (ZnPt ˜0.015 to 0.25%; combination 0.015% to 4%)) was “dose-dependent increase in antimicrobial activity” and the “antimicrobial activity in PEG-formulation” value (P. aeruginosa [11]; Pseudomonas aeruginosa) was “exhibited antimicrobial activity”. The MIC [12] was 2 µg/mL, the minimum inhibitory concentration ([13]; Acinetobacter baumannii) was 2 µg/mL and the MIC ([13]; Acinetobacter baumannii 983709) was 2 µg/mL.
